Laboratory results as given in PubChem BioAssay AID256 (DTP/NCI, 2004).
Toxic doses and inconclusive results are not listed. How the source made its calls: active means survival T/C of 150% or more; inactive means T/C below 125% in these data.

Test system: CD2F1 mice, L1210 leukemia ip, survival T/C
Experiment: NCI In Vivo Anticancer Drug Screen. Data for tumor model L1210 Leukemia (intraperitoneal) in CD2F1 (CDF1) mice
Details: endpoint: mean survival time, higher = longer survival
Procedure, shortened: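 Mice carrying a transplanted tumor received test compound or vehicle alone. The value is the measurement in the treated group divided by that in the vehicle-treated control group.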

[1] = dose: 100.0 mg/kg/injection, schedule: Q04DX003 (ip), vehicle: saline
[2] = dose: 200.0 mg/kg/injection, schedule: Q04DX003 (ip), vehicle: saline
[3] = dose: 400.0 mg/kg/injection, schedule: Q04DX003 (ip), vehicle: saline
[4] = dose: 100.0 mg/kg/injection, schedule: Q04DX003 (ip), vehicle: saline with Tween-80
[5] = dose: 400.0 mg/kg/injection, schedule: Q04DX003 (ip), vehicle: saline with Tween-80
[6] = dose: 100.0 mg/kg/injection, schedule: Q01DX009 (ip), vehicle: saline with Tween-80
[7] = dose: 200.0 mg/kg/injection, schedule: Q01DX009 (ip), vehicle: saline with Tween-80
[8] = dose: 400.0 mg/kg/injection, schedule: Q01DX009 (ip), vehicle: saline with Tween-80
[9] = dose: 200.0 mg/kg/injection, schedule: Q04DX003 (ip), vehicle: saline with Tween-80
[10] = dose: 50.0 mg/kg/injection, schedule: Q01DX009 (ip), vehicle: saline with Tween-80

Measured: T/C

Cc1cc(=O)[nH]c2c1c(C#N)cn2C1CCCCC1
inactive: [1] 101 % of control | [2] 89 % of control | [3] 93 % of control

COC(=O)c1ccc(C=O)cc1
inactive: dose: 100.0 mg/kg/injection, schedule: Q04DX003 (ip), vehicle: Klucel (hydroxypropylcellulose) (HPC) 87 % of control | dose: 200.0 mg/kg/injection, schedule: Q04DX003 (ip), vehicle: Klucel (hydroxypropylcellulose) (HPC) 102 % of control | dose: 400.0 mg/kg/injection, schedule: Q04DX003 (ip), vehicle: Klucel (hydroxypropylcellulose) (HPC) 94 % of control

O=C(Nc1ccc(F)cc1)c1ccc(C(=O)Nc2ccc(F)cc2)cc1
inactive: [4] 100 % of control | [5] 94 % of control

CS(=O)(=O)OCC(=O)NCCCCNC(=O)COS(C)(=O)=O
inactive: dose: 100.0 mg/kg/injection, schedule: Q01DX001 (ip), vehicle: saline 101 % of control | dose: 200.0 mg/kg/injection, schedule: Q01DX001 (ip), vehicle: saline 101 % of control

Nc1nc(N)c(N=Nc2ccc(SCC(=O)O)cc2)c(=O)[nH]1
inactive: [6] 100 % of control | [7] 94 % of control | [8] 101 % of control

COC(=O)c1cc2ccccc2cc1OC
inactive: [6] 102 % of control | [4] 95 % of control | [7] 109 % of control | [9] 97 % of control | [8] 101 % of control | [5] 97 % of control

Nn1c(=O)[nH][nH]c1=O
inactive: [6] 96 % of control | [4] 93 % of control | [7] 96 % of control | [9] 93 % of control | [8] 98 % of control | [5] 98 % of control

N#CC(CC(=O)c1ccccc1)c1ccccc1 (centres undefined)
inactive: [4] 90 % of control | [9] 102 % of control | [5] 104 % of control

O=[N+]([O-])C/C=C(/C=Nc1ccc(Cl)cc1)[N+](=O)[O-]
inactive: dose: 100.0 mg/kg/injection, schedule: Q01DX009 (ip), vehicle: saline 101 % of control | [1] 105 % of control | dose: 200.0 mg/kg/injection, schedule: Q01DX009 (ip), vehicle: saline 102 % of control | [2] 97 % of control | dose: 400.0 mg/kg/injection, schedule: Q01DX009 (ip), vehicle: saline 96 % of control | [3] 97 % of control

O=C(O/N=C(\C(=O)c1ccccc1)c1ccccc1)c1ccc(Br)cc1
inactive: dose: 100.0 mg/kg/injection, schedule: Q01DX001 (ip), vehicle: saline with Tween-80 90 % of control | dose: 200.0 mg/kg/injection, schedule: Q01DX001 (ip), vehicle: saline with Tween-80 90 % of control

COc1ccc2c(O)c(Cc3ccccc3)c(=O)oc2c1
inactive: [10] 112 % of control | [6] 103 % of control | [7] 103 % of control

COc1cc(OC)c(NC(=O)OCCOc2ccc([N+](=O)[O-])cc2)cc1Cl
inactive: [10] 90 % of control | [6] 86 % of control | [7] 97 % of control

O=c1oc(-c2cccc([N+](=O)[O-])c2)nc2ccccc12
inactive: [4] 100 % of control | [9] 88 % of control
